From PubChem BioAssay AID179 (DTP/NCI, 2004)
Where “and” joins values, the source holds several entries; their conditions need not be identical. Equal entries are not always repeated. Calls of active or inactive are those of the source.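 The calls were made as follows: active = compounds giving half or more protection of infected cells from virus-caused growth loss, again on retest; inactive = the rest.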

System: CEM cells HIV-1 protection, formazan growth assay
Experiment: NCI AIDS Antiviral Assay
Conditions: for IC50: measured here: growth of uninfected CEM cells
How it was run: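 Human CEM cells, uninfected and HIV-1-infected, received five drug concentrations, and growth was read by soluble formazan assay. Compounds giving at least 50% protection were retested; reproducible 100% protection defined confirmed active.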

With O=C(O[C@H]1[C@@H]2C=CO[C@@H](OC3OC(CO)C(O)C(O)C3O)[C@@H]2[C@@]2(CO)O[C@@H]12)c1ccc(O)c(O)c1 (some centres not stated) the outcome was “inactive”.
With COc1ccc2nc3ccccc3c(NCCCCCCN(CCCl)CCCl)c2c1 the EC50 was greater than 0.2 µM and the IC50 was 0.162 µM.
For O=C(O)C1(P(=O)(O)O)CC1, the outcome was “inactive”.
COc1ccc(C(=C(C#N)C#N)c2ccc(OC)cc2)cc1 was tested, and the outcome was “inactive”.
In the case of CCOC(=O)C(NC(=O)c1cccc(Cl)c1)(Nc1ccc(S(=O)(=O)Nc2cc(C)on2)cc1)C(F)(F)F (configuration not stated), the EC50 is reported as greater than 200 µM and the IC50 is reported as 155 µM.
In the case of [O]=[Sb][c]1ccc(Br)cc1, the EC50 is reported as greater than 200 µM and the IC50 is reported as 4.57 µM.
CCOP(=O)(OCC)/C(C#N)=C/c1ccccc1 showed an EC50 greater than 676 µM and an IC50 greater than 676 µM.
For O=C(NC1C=Nc2ccc(Cl)cc2NC1=O)c1ccc(Cl)cc1 (configuration not stated), the EC50 was greater than 200 µM and the IC50 was greater than 200 µM.
CN1CC2=C(NC(=S)NC2c2ccccc2)/C(=C/c2ccccc2)C1 (configuration not stated) gave an EC50 of 19.1 µM and an IC50 of 85.1 µM.
CC1CCCC(C(O)CC2CC(=O)NC(=O)C2)C1O (configuration not stated) showed an EC50 greater than 200 µM and an IC50 greater than 200 µM.
For O=c1c2ccccc2nc(-c2ccccc2)n1NCC1(O)OCC(O)C(O)C1O (configuration not stated), the outcome was “inactive”.
O=c1[nH]c2ccccc2c(=O)n1CCCN1CCN(c2cccc(Cl)c2)CC1 was tested, and the EC50 was greater than 200 µM and the IC50 was 50.1 µM.
With CC1=C2C(=O)NN=C2CCN1c1ccc(Br)cc1 the EC50 was greater than 200 µM and the IC50 was 34.7 µM.
Compound Cc1c([O-])c([O-])c(C)c2c1OCO2.[C-]#[O+].[C-]#[O+].[C-]#[O+].[Re].c1ccc([PH+](c2ccccc2)c2ccccc2)cc1 has an EC50 greater than 15.1 µM and an IC50 of 6.46 µM.
With O=C(CCC(=O)Nc1cccc(C(F)(F)F)c1)CC(=O)c1ccc2ccccc2c1 the outcome was “inactive”.
In the case of O=C(COc1ccc(Cl)cc1)N1N=C(c2ccc(Cl)cc2)CC1(O)c1ccccc1 (configuration not stated), the EC50 is reported as greater than 16.2 µM and the IC50 is reported as greater than 16.2 µM.
For CCN(CC)CCCNc1ncnc2c1C(c1ccccc1)c1ccccc1-2 (configuration not stated), the EC50 was greater than 676 µM and the IC50 was 33.1 µM.
Compound O=c1cc(NNc2cccc(F)c2)[nH]c(=S)[nH]1 has an EC50 greater than 200 µM and an IC50 of 87.1 µM.
For CC1(C)C=CC2=C(O1)C(=O)c1ccccc1C2=O, the EC50 was greater than 200 µM and the IC50 was 32.4 µM and 26.9 µM.
CC1OC2CC(=O)OC2C2=C1C(=O)c1c(O)cccc1C2=O (configuration not stated) was tested, and the EC50 was greater than 2 µM and the IC50 was 0.0282 µM.
With CN1c2ccccc2C(=O)NC12CCNCC2 the EC50 was greater than 200 µM and the IC50 was greater than 200 µM.
For Clc1ccc(C2N3CCCCC3[C@@H]3c4[nH]c5ccccc5c4CCN23)cc1 (some centres not stated), the EC50 was greater than 19.1 µM and the IC50 was greater than 19.1 µM.
With O=C1CCN2CCC(=O)c3cccc1c32 the outcome was “inactive”.
With O=NN1C(c2ccccc2)CC(=NO)CC1c1ccccc1 (configuration not stated) the EC50 was greater than 200 µM and the IC50 was 129 µM.
Compound CC([C@H]1CCC2C3CCC4CC5(CC[C@]4(C)C3CC[C@@]21C)c1ccccc1C(=O)N5C)N(C)C (some centres not stated) has an EC50 greater than 8.13 µM and an IC50 greater than 8.13 µM.
CN(C)c1nc2n(CCO)c(-c3ccccc3)c(-c3ccccc3)nc-2c(=O)n1 gave an EC50 of 30.9 µM and an IC50 greater than 100 µM.
In the case of CCOC(=O)N1CCN(C(=O)COc2cc3c(O)c4c(O)c(C)c5c(c24)C(=O)C(C)(O/C=C/C(OC)C(C)C(OC(C)=O)C(C)C(O)C(C)C(O)C(C)/C=C/C=C(\C)C(=O)N3)O5)CC1 (configuration not stated), the EC50 is reported as greater than 200 µM and the IC50 is reported as 13.5 µM.
In the case of CN(C)C(=O)N1N[C@H](c2ccccc2)[C@@H]1c1ccccc1, the EC50 is reported as greater than 200 µM and the IC50 is reported as 135 µM.
N.N.N.N.N.N#Cc1nn[n-]n1.[Cl-].[Co+3] gave an EC50 greater than 813 µM and an IC50 greater than 813 µM.
CCCCCc1c2nc(c(CCCCC)c3ccc([nH]3)c(CCCCC)c3ccc([nH]3)c(CCCCC)c3nc1C=C3)C=C2 gave an EC50 greater than 200 µM and an IC50 greater than 200 µM.
CC1CN=C(N(C(=O)Nc2ccccc2)c2ccccc2)S1 (configuration not stated) gave an EC50 greater than 200 µM and an IC50 greater than 200 µM.
CC(=O)N1C(Nc2cccc3nc(C)ccc23)CCN1c1ccccc1 (configuration not stated) gave an EC50 greater than 200 µM and an IC50 of 14.8 µM.
Compound COC(=O)/C=C/c1cc(=O)n2c(nc3ccccc32)s1 has an EC50 greater than 200 µM and an IC50 greater than 200 µM.
Work on CC(C(O)c1ccccc1)N(C)/N=N/c1nc2c([nH]1)c(=O)n(C)c(=O)n2C (configuration not stated) yielded an EC50 greater than 200 µM and an IC50 of 110 µM.
Work on O=C1OI(C#Cc2ccccc2)c2ccccc21 yielded an EC50 greater than 20 µM and an IC50 of 3.31 µM.
COc1ccc2c(c1)C(=O)OCCC2 was tested, and the EC50 was greater than 200 µM and the IC50 was greater than 200 µM.
For CC1(C)C(=O)N(O)C(C)(C)N1O, the EC50 was greater than 200 µM and the IC50 was greater than 200 µM.
For CC(C)C1OC(=O)/C=C/C=C/C=C/C=C/C=C/CC(O)CC(O)CC(O)CC(O)CC(O)CC(O)CC(O)CC(O)/C=C/C1C (configuration not stated), the EC50 was greater than 200 µM and the IC50 was greater than 200 µM.
In the case of CCc1ccc(/C(C#N)=C/c2ccc(N(C)CCC#N)cc2)cc1, the EC50 is reported as greater than 200 µM and the IC50 is reported as 3.55 µM.
COC(=O)/C(C=O)=C/Sc1ccccc1 was tested, and the outcome was “inactive”.
Work on CC(C)[Si]([Se]c1ccccc1)(C(C)C)C(C)C yielded an EC50 greater than 21.9 µM and an IC50 greater than 21.9 µM.
CC(C)C1=CC2=C(C(=O)C1=O)C13CCCC(C)(C)C1CC2OC3=O (configuration not stated) showed an EC50 greater than 79.4 µM and an IC50 of 28.2 µM.
COCc1cc2c(cc1/C=C/[N+](=O)[O-])OCO2 gave an EC50 greater than 200 µM and an IC50 of 2.95 µM.
Cc1ccc([N+](=O)[O-])cc1NC(=O)N1CCCCC1C (configuration not stated) gave an EC50 greater than 200 µM and an IC50 greater than 100 µM.
In the case of CC(C)[Si](OC12CCC(CC1O)CC2C(=O)O)(C(C)C)C(C)C (configuration not stated), the EC50 is reported as greater than 200 µM and the IC50 is reported as 22.4 µM.
COc1cccc(C2SCC(=O)N2c2ccc(-n3c(-c4ccccc4)nc4ccccc4c3=O)cc2)c1OC (configuration not stated) showed an EC50 greater than 200 µM and an IC50 greater than 200 µM.
For Cc1cc(NCCCCCCNc2cc(C)nc3cc(N(C)C)ccc23)c2ccc(N(C)C)cc2n1, the outcome was “inactive”.
O=C(Nc1ccccc1-c1nc2ccccc2[nH]c1=O)c1ccccc1 showed an EC50 greater than 52.5 µM and an IC50 of 29.5 µM.
Work on O=C(NC1C=Nc2ccc(Cl)cc2NC1=O)c1ccc2ccccc2c1 (configuration not stated) yielded an EC50 greater than 200 µM and an IC50 greater than 200 µM.
Work on O=C1CCC2(c3ccc(Cl)cc3)Nc3ccncc3N12 (configuration not stated) yielded an EC50 greater than 631 µM and an IC50 of 91.2 µM.
In the case of C=CCOC1=C(OC(C)=O)C(=O)OC1C1COC(C)(C)O1 (configuration not stated), the EC50 is reported as greater than 200 µM and the IC50 is reported as 26.3 µM.
With Nc1c(CCc2ccccn2)ccc2ccccc12 the EC50 was greater than 200 µM and the IC50 was 166 µM.
In the case of c1cc2c(s1)CCC/C2=N\N=C1/CCCc2sccc21, the outcome is reported as “inactive”.
c1cc(SSc2ccncc2)ccn1 gave an EC50 greater than 200 µM and an IC50 of 25.1 µM.
Cc1ccc(NC(=O)CC/C(CC(=O)c2ccc(Cl)cc2)=N\NC(=O)C(=O)NN)cc1C showed an EC50 greater than 8.32 µM and an IC50 greater than 8.32 µM.
Work on CN(C)C(=O)NC1(N(C)C)CC1 yielded an EC50 greater than 200 µM and an IC50 greater than 200 µM.
Cc1sc(C)c2c1C(=O)CC2N (configuration not stated) showed an EC50 greater than 200 µM and an IC50 of 9.77 µM.
Compound NC(=O)C(NC=O)c1ccccc1 (configuration not stated) has an EC50 greater than 200 µM and an IC50 greater than 200 µM.
Compound CC1(C)SC(C)(C)N2C(=O)[C@H]3N(C(=O)[C@@H]21)C(C)(C)SC3(C)C has an EC50 greater than 75.9 µM and an IC50 greater than 75.9 µM.
For C=C1CC(C)(COc2cc(=O)oc3ccccc23)OC1=O (configuration not stated), the EC50 was greater than 200 µM and the IC50 was 1.74 µM.
CC(=O)OC(=C(C#N)C#N)c1nccnc1C(=O)O showed an EC50 greater than 200 µM and an IC50 greater than 200 µM.
Work on CC(C)(C)OC(=O)N[C@H]1CC(=O)c2ccccc2N(CC(=O)O)C1=O yielded an EC50 greater than 251 µM and an IC50 greater than 251 µM.
For O=[N+]([O-])C(=C1Nc2ccccc2N1)C(Cl)=C(Cl)Cl, the EC50 was greater than 200 µM and the IC50 was 105 µM.
CCOC(=O)C(/C(=N\NC(=O)OC)C(=O)Nc1cc(OC)ccc1OC)c1cnc2ccccc2n1 (configuration not stated) gave an EC50 of 81.3 µM and an IC50 of 138 µM.
With COC(=O)c1ccccc1CC(Cc1ccccc1)C(=O)OC (configuration not stated) the outcome was “inactive”.
Work on CN(C)CCC=C1c2ccccc2C(C)(C)c2ccccc21 yielded an EC50 greater than 141 µM and an IC50 of 25.1 µM.
